Data published in patent US5814627A, “3, 5-disubstituted and 3, 4, 5-trisubstituted 2-isoxazolines and isoxazoles, process for their preparation and their use as pharmaceuticals” (Hoechst Aktienegesellschaft, priority 1994, dated 1998).
Where two headings read alike, the source gives them in different places.

What was measured:
[1] = test system: IL-1α release from mononuclear cells; assay: Test 4: cytokine release from LPS-stimulated mononuclear cells, IL-1α; format: cell-based; settings: Homo sapiens, read-out: Test 4 residual activity (IL-1α release), percent of control
Description: (§1) Test 4. Stimulation of the cytokine release
(§2) Isolation of mononuclear cells from human blood
(§3) 10 ml of human blood, stabilized with 1 ml of 3.8% sodium citrate solution, were diluted with 10 ml of PM16 (Serva, Heidelberg) and underlaid with 15 ml of Lymphoprep (Dr. Molter GmbH, Heidelberg). The samples were centrifuged, at room temperature for 40 minutes, at 400×g (1600 rpm, Minifuge 2, Heraeus, Osterode). The mononuclear cells are visible as a white ring at the Lymphoprep/plasma interface. This ring was carefully removed with a syringe, diluted with an equal volume of PM16, and centrifuged for 10 minutes at 400×g. The sediment was washed with approximately 10 ml of RPMI1640 (+300 mg/l L-glutamine, Gibco, Eggenstein) (Wallis, 1986). After the cells had been resuspended in approximately 1 ml of RPMI1640 (+300 mg/l L-glutamine+25 mM HEPES+100 μg/ml streptomycin+100 μg/ml penicillin), the cell density was determined using a Coulter Counter JT (Coulter Diagnostics) and adjusted to 5*10^6 /ml. Typically, the cells are composed of 90% lymphocytes and 10% monocytes.
230 μl of mononuclear cells were incubated, at 37° C.; 5% CO2 for 20-22 hours (5 hours in the case of IL-6), with 10 μl of test substance ([…]) and 10 μl of lipopolysaccharide (LPS; 500 μg dissolved in 1 ml of DMSO and diluted 1/10 with water prior to beginning the test; from Salmonella abortus equi, Sigma, Deisenhofen). The samples were cooled down to 0° C. in an ice bath and centrifuged in a Sigma centrifuge (2 minutes; 2000 rpm). Aliquots of the supernatant are measured with an ELISA (Biermann, Bad Nauheim). The abbreviation IL stands for interleukin and TNF for tumor necrosis factor alpha.
(§4) The values in the table show the concentration of the test substance which was employed in μM and, besides this, the residual activity measured in percent based on the control, which was set to be 100%. The interleukin is additionally indicated in test 4.

[2] = test system: IL-1β release from mononuclear cells; assay: Test 4: cytokine release from LPS-stimulated mononuclear cells, IL-1β; format: cell-based; settings: Homo sapiens, read-out: Test 4 residual activity (IL-1β release), percent of control
Description: as §1, §2, §3
(§5) 230 μl of mononuclear cells were incubated, at 37° C.; 5% CO2 for 20-22 hours (5 hours in the case of IL-6), with 10 μl of test substance (10 μM in DMSO/water, 1/10) and 10 μl of lipopolysaccharide (LPS; 500 μg dissolved in 1 ml of DMSO and diluted 1/10 with water prior to beginning the test; from Salmonella abortus equi, Sigma, Deisenhofen). The samples were cooled down to 0° C. in an ice bath and centrifuged in a Sigma centrifuge (2 minutes; 2000 rpm). Aliquots of the supernatant are measured with an ELISA (Biermann, Bad Nauheim). The abbreviation IL stands for interleukin and TNF for tumor necrosis factor alpha.
as §4

[3] = test system: TNFα release from mononuclear cells; assay: Test 4: cytokine release from LPS-stimulated mononuclear cells, TNFα; format: cell-based; settings: Homo sapiens, read-out: Test 4 residual activity (TNFα release), percent of control
Description: as §1, §2, §3, §5, §4

[4] = test system: cyclooxygenase-dependent thrombocyte aggregation; assay: Test 5: Cyclooxygenase-dependent thrombocyte aggregation; format: cell-based, human; settings: Homo sapiens, arachidonic acid as inducer, read-out: Test 5 residual activity (cyclooxygenase-dependent thrombocyte aggregation), percent of control
In short: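 Citrated human platelet-rich plasma was preincubated 10 min at 37 °C with test substance diluted 1:30 in 50 mM Tris-HCl pH 8.0, 90 mM NaCl. Aggregation was triggered with arachidonic acid (5 mg/ml, 20 μl) under 800 rpm stirring in an aggregometer. Values are tested concentration (μM) and residual activity as % of control.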

[5] = test system: leukotriene B4 synthesis in white blood cells; assay: Test 3: LTB4 formation by white blood cells; format: cell-based; settings: Homo sapiens, read-out: Test 3 residual activity (LTB4 formation), percent of control
Description: TEST 3. LTB4 formation by white blood cells
Isolation of white blood cells:
40 ml of human blood were mixed with 8 ml of 6% dextran solution (dextran, mw: 480,000 in PM16). After one hour at room temperature, the supernatant,which was composed of white blood cells, was removed, diluted with an equal volume of PM16, and centrifuged for 15 minutes at 300×g (1600 rpm). The sediment was next resuspended in approximately 5-6 ml of PM16 and, once the cell count had been determined in a Coulter Counter, adjusted to 10^7 cells/ml.
The test mixture comprised 0.24 ml of cell suspension, 0.03 ml of 20 mM CaCl2 /5 mM MgCl2 and 5 μl of test substance. Following 15 minutes of preincubation at 37° C., the reaction was started with 0.03 ml of A23187/glutathione (100 μg of A23187/ml; 15.4 μg of glutathione/ml). The incubation was terminated after 5 minutes at 37° C. by immediate cooling of the samples down to 0° C. After centrifuging for 2 minutes in an Eppendorff Centrifuge (0° C.), the supernatant was removed and examined chromatographically.
High pressure liquid chromatography (HPLC): the HPLC equipment comprises a Kratos pump (Spectro-flow 400), a cooled automatic BT 7041 sample injector (Biotronik) having a 75 μl sample loop, a Nucleosil C18 column (100*3 mm, 5 μm particles of Chrompack), a UV detector (Kratos) Spectroflow 757 (wavelength: 280 nm, measurement range: 0.1 AUFS, time constant: 0.5 s) and a Spectra Physics integrator (SP 4270). The eluent (725 ml of methanol, 275 ml of water and 0.1 ml of acetic acid) was supplied at a flow rate of 0.7 ml/minute and at a pressure of about 100 bar.
When doing this, the measurement range which has been set can be examined and altered if necessary. It is also vital to measure the test substances at the particular test concentration (e.g.: 10^-5 M) in PM16 before the cell incubation, since the test substances might conceal the LTB4 peak. If this is the case, a lower concentration must be selected.
as §4

adjuvant/arthritis model = assay: Test 6: antiarthritic effect in the adjuvant/arthritis model; format: in vivo, rat (Wistar-Lewis); settings: Rattus norvegicus, po, 408 h, 50 mg/kg orally, daily for 17 days; rat; read-out: Test 6 Paw volume (% inhibition)
Description: Male rats of a Wistar-Lewis strain (Mollegaard/Denmark) were used as experimental animals. The body weight is between 160 and 200 g. Subplantar injection of 0.1 ml of Freund's adjuvant (=6 mg of Mycobacterium butyricum suspension, Difco Lab./Detroit, Mich. USA, per ml of heavy white paraffin oil, Merck, Darmstadt) into the root of the tail resulted, on the 10th to 14th day of the experiment, in immunopathological processes and chronic inflammations, particularly in the form of arthritic and periarthritic symptoms, at other sites in the body (secondary lesions). The animals were fed ad libitum with the standard feed Altromin-R, from Altrogge, Lage, and provided with tap water. The animals were given 60 mg of codein per kg as an analgesic from the 14th day to the end of the experiment. The test substances were administered orally as a CMC suspension, in an injection volume of 1 ml/100 g of body weight, on each day (in all for 17 days), beginning on the day of the adjuvant administration. The volumes of each of the hind paws, and the body weight, were measured on the first and on the 18th day of the experiment. Diminution in the increase of paw volume, as compared with the untreated control group, served as the criterion of activity, with the two hind paws being averaged.

[6] = test system: PAF-induced asthma attack; assay: Test 7: antiasthmatic effect, PAF-induced asthma attack; format: in vivo; settings: Cavia porcellus; i.d., 15 minutes before PAF; guinea pig
Description: Test 7: Testing for antiasthmatic effect
Anesthetized guinea pigs, which were cannulated in the jugular vein to allow injection of the PAF, were used for testing for antiasthmatic effect. The test preparations were also administered intravenously (i.v.), 5 min before PAF administration, into the blood stream through the same venous cannula, or else administered intraduodenally (i.d.), 15 minutes before the PAF, through an opening in the duodenum which had been installed and cannulated surgically. The bronchial width was recorded in an overflow pneumonogram before and after administering the preparation. Evaluation: ED50 in mg/kg i.d. as compared with the PAF-induced asthma attack.

[7] = test system: tumor cell line 20-10-5S (hybridoma cell line); assay: Test 8: Inhibition of tumor cell proliferation; format: cell-based; settings: 48 h + 16 h tritiated thymidine incorporation; 20-10-5S cells
Description: The tumor cell line 20-10-5S (hybridoma cell line, supplied by ATCC (American Type Culture Collection)), which produces an antibody against mouse T cells) was used for determining the antiproliferative property of test substances. The cells were cultured, at 37° C. and 5% C2, under serum-free conditions in CG medium (cell-growth medium=Iscove-ATL (+albumin+transferrin+lipids); from Vitromex, Vilshofen). Only cells which were in the logarithmic phase of growth were used for the test mixture. The test substances were pipetted in various concentrations (from 1 to 50 μM), together with 4×10^3 20-10-5S cells, into round-bottomedmicrotiter plates (total volume with medium, 200 μl). After an incubation time of 48 h (37° C. and 5% CO2), 25 μl of tritiated thymidine (=0.25 μCi/test mixture, specific activity, 23 Ci/mM) were added to the plates. During the subsequent 16 h, the radioactively labeled thymidine was incorporated into the DNA of the growing cells. The samples were filtered off with suction on glass fiber filters and the incorporated radioactivity was measured using a β counter (Beta Plate System 1205 from Wallac).

[8] = test system: polymorphonuclear leucocytes (PMNL); assay: Test 1: Release of proteolytic activity from human PMNL; format: cell-based; settings: Homo sapiens, PMNL, read-out: Test 1 residual activity (release of proteolytic activity), percent of control
In short: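 Human peripheral-blood PMNL (5·10^6 cells/ml in PBS with 7.5 mM glucose) preincubated 20 min at 37° C. with compound, then primed with cytochalasin B (5 μg/ml) and TNF (30 ng/ml), and stimulated with fMLP (10 nmol/l) for 60 min. Released protease in supernatant read with methoxysuccinyl-nitroanilide substrate at 405 nm over 0-60 min, pH 7.5.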

[9] = test system: IL-1 release from mononuclear cells; assay: Test 4: cytokine release from LPS-stimulated mononuclear cells, IL-1; format: cell-based; settings: Homo sapiens
Description: as §1, §2, §3, §5, §4

[10] = IL-1, read-out: Test 4 residual activity (IL-1 release), percent of control

IC50 [7] [µM]	Structure (SMILES)	activity at 1 µM [1] [%]	activity at 10 µM [3] [%]	activity at 100 µM [4] [%]	activity at 10 µM [5] [%]	activity at 100 µM [8] [%]	other results
–	CC(C)(C)c1cc(-c2cc(CCC(=O)Nc3nnn[nH]3)on2)cc(C(C)(C)C)c1O [Example 46, 3-(3-(4-Hydroxy-3,5-di-tert-butylphenyl)isoxazol-5-yl)-N-(1H-tetrazol-5-yl)propionamide]	77	79	90	–	–	activity at 1 µM [2]: 85%
< 5	CC(C)(C)c1cc(-c2cc(CCO)on2)cc(C(C)(C)C)c1O [Example 25]	–	82	–	29	–	activity at 1 µM [5]: 85%; activity at 10 µM [1]: 62%; activity at 10 µM ([2]; 10 μM): 93%; activity at 10 µM [4]: 86%; inhibition in vivo at 50 mg/kg (adjuvant/arthritis model): 44%; ED50 [6]: 3 to 10 mg/kg
–	CC(C)(OCc1cc(-c2cc(C(C)(C)C)c(O)c(C(C)(C)C)c2)no1)C(=O)Nc1nnn[nH]1 [Example 38, 2-(3-(4-Hydroxy-3,5-di-tert-butylphenyl)isoxazol-5-ylmethoxy)-N-(1H-tetrazol-5-yl)isobutyramide]	89	–	90	–	–	activity at 1 µM [2]: 85%
–	CC(C)(C)c1cc(C2=NOC(c3ccncc3)C2)cc(C(C)(C)C)c1O (stereo not shown) [Example 10]	–	78	98	20	–	activity at 1 µM [5]: 89%
5 to 10	CC(C)(C)c1cc(-c2cc(/C=C/C(=O)O)on2)cc(C(C)(C)C)c1O [Example 47, 3-(4-Hydroxy-3,5-di-tert-butylphenyl)isoxazol-5-ylacrylic acid]	89	64	–	–	17	activity at 1 µM ([8]; 1 μM): 85%; activity at 10 µM [8]: 38%; activity at 10 µM [1]: 72%; ED50 [6]: 10 to 50 mg/kg
< 5	CC(C)(C)c1cc(-c2cc(CO)on2)cc(C(C)(C)C)c1O [Example 24]	–	–	–	–	–	activity at 10 µM [9, 10]: 86%; activity at 10 µM [4]: 94%; inhibition in vivo at 50 mg/kg (adjuvant/arthritis model): 43%
–	CC(C)(C)c1cc(C2CC(c3nccs3)=NO2)cc(C(C)(C)C)c1O (stereo not shown) [Example 61, 3-(2-Thiazolyl)-5-(4-hydroxy-3,5-di-tert-butylphenyl)-2-isoxazoline]	94	68	94	3	80	–
–	CC(C)(C)c1cc(C2CC(CCC(=O)Nc3nnn[nH]3)=NO2)cc(C(C)(C)C)c1O (stereo not shown) [Example 64, 5-(4-Hydroxy-3,5-di-tert-butyl)phenyl-2-isoxazoline-3-propionic acid-N-(1H-tetrazol-5-yl)amide]	–	–	97	–	72	activity at 10 µM [8]: 96%; activity at 10 µM ([9]; IL-1 (second entry), read-out: Test 4 residual activity (IL-1 release, second IL-1 entry of Ex. 64), percent of control): 82%; activity at 1 µM ([9]; IL-1, 1 μM, read-out: Test 4 residual activity (IL-1 release), percent of control): 85%; activity at 10 µM [9, 10]: 68%
